From publication PMC11784145, “Efficacy and in vitro pharmacological assessment of novel N-hydroxypyridinediones as hepatitis B virus ribonuclease H inhibitors” (Antimicrobial Agents and Chemotherapy, 2024)
Read-outs that look alike come from different tables or passages of the source.

Key:
[1] = tested on: HBV replication (HBV plus-polarity DNA strand); assay: HBV replication inhibition, strand preferential qPCR in hepDES19 cells; assay type: cell-based, hepatitis B virus; conditions: for EC50: 72 h exposure
Method: HBV replication inhibition was measured in hepDES19 cells following 72 h compound exposure without compound replenishment. EC50 values were determined by HBV plus-polarity strand suppression using a strand preferential qPCR assay, as described previously ([28]). Three or more replicate values were obtained on different days.

[2] = target: T1, human ribonuclease H1 (huRNase H1) (Homo sapiens, UniProt O60930); assay: Human RNase H1 inhibition, fluorescent biochemical assay
T1 construct: made in house; host or cells: Escherichia coli
T1 sequence (O60930 1-286): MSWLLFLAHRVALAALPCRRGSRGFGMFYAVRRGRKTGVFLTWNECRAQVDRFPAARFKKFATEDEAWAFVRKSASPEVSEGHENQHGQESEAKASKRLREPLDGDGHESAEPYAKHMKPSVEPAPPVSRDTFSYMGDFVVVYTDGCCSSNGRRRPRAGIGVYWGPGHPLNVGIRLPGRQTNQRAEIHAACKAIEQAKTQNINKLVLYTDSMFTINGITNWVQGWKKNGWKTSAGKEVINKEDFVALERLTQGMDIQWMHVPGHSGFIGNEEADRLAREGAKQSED

[3] = tested on: HBV plus-polarity DNA in hepDES19 cells; assay: Effect of plasma proteins on compound potency; assay type: cell-based, hepatitis B virus; conditions: 10 µM compound, 72 h, media with BSA to 40 mg/mL versus 10% FBS (0.25 mg/mL BSA)
Method: HBV plus-polarity DNA suppression was assessed in hepDES19 cells following compound treatment for 72 h. Cells incubated with compound (10 µM) in either normal tissue culture media conditions containing 10% FBS, or in media supplemented with bovine serum albumin (BSA) to 40 mg/mL. Percent inhibition was determined, as described previously ([27], [28]). The presence of increased BSA levels was determined to affect compound potency if there was a statistically significant decrease in percent HBV plus polarity DNA suppression when compared to cells treated with compound in normal media conditions. Three or more replicate assays were performed on separate days.

CYP3A4 mRNA expression = assay: CYP3A4 induction, RT-qPCR in HepG2 cells; conditions: 10 µM, 24 or 48 h, normalized to GAPDH and DMSO
Method: HepG2 cells were seeded on 12-well, tissue-culture-treated plates (Sarstedt) at 2.5 × 10^5 cells/well for 24 h. Cells were treated with 10 µM compound or 1% DMSO for 48 h with replenishment at 24 h. Cells were rinsed with PBS and lysed at 0, 24, and 48 h using TRI Reagent (Sigma Aldrich). […] Cellular DNA was degraded using DNase I (Invitrogen), according to the manufacturer’s instructions.
Complementary DNA (cDNA) synthesis employed the ProtoScript II First Strand cDNA Synthesis Kit (New England Biolabs) according to the manufacturer’s instructions with an additional incubation step at 25°C for 5 min. Reverse transcriptase-qPCR (RT-qPCR) was performed using a Quantstudio 5 (Thermo Fisher) in a final reaction volume of 20 µL with 4 µL cDNA template, 2× KAPA probe force master mix (Roche), 300 nM probe, and 100 nM forward and reverse primer. CYP3A4 expression was determined by normalizing the experimental sample cycle threshold values to DMSO-treated wells. GAPDH was used as a housekeeping gene.

[4] = tested on: primary human hepatocytes (PHHs); assay: Primary human hepatocyte cytotoxicity (MTS assay); assay type: cell-based; conditions: 72 h, highest concentration tested 100 µM, mean ± SD, read-out: PHH CC50
Method: PHH cytotoxicity was determined by MTS assays following 72 h compound exposure, as described in Woodson et al. ([27]).

[5] = HBV plus-polarity strand suppression, highest concentration tested 100 µM, mean ± SD, read-out: HepDES19 EC50
[6] = read-out: EC50 against HBV replication

Question: Which results are given for `CC(=NOCc1ccc(F)c(F)c1)c1c(C)cc(=O)n(O)c1O` [Compound 1617]?
Answer: HepDES19 SI (CC50/EC50) [1]: 157; EC50 [1, 5]: 350 ± 193 nM; EC50 [1, 6]: < 400 nM; Selectivity of HBV replication inhibition over huRNase H1 (huRNase H1 IC50 versus HBV EC50) [2]: at least 10 fold; Effect of increased albumin on HBV plus polarity DNA suppression [3]: physiologically relevant

Question: `CC(=NOCc1cccc(F)c1)c1c(C)cc(=O)n(O)c1O` [Compound 1618] was tested. Which “HepDES19 SI (CC50/EC50)” value [1] did it give?
Answer: The value was 1,071.

Question: And the EC50 [1, 5]?
Answer: Its EC50 is 61 ± 10 nM.

Question: What about the EC50 [1, 6] of the same compound?
Answer: Its EC50 is less than 400 nM.

Question: What about the “Selectivity of HBV replication inhibition over huRNase H1 (huRNase H1 IC50 versus HBV EC50)” value [2] of the same compound?
Answer: The value was “at least 10 fold”.

Question: What about the “CYP3A4 mRNA expression increase” value (CYP3A4 mRNA expression) of the same compound?
Answer: The value was less than 2 fold.

Question: And the CC50 [4]?
Answer: The CC50 was 93800 ± 10700 nM.
